This is an account of results in paper PMC12281424, “A Rac-specific competitive inhibitor of guanine nucleotide binding reduces metastasis in triple-negative breast cancer” (Cell Reports Medicine, 2025).

For data set [1], the target named is ROCK-II(r) (Rattus norvegicus, UniProt Q62868). Nature of the data set: Kinase Profiler. The format is biochemical.
Procedure: (§1) Blood cell counts, kinase profiler, safety screen, bacterial cytotoxicity, Ames, micronucleus assays were performed by the company Eurofins (France). The kinase profiler was performed by the company Eurofins (Discovery, Panlab and Cerep).
Data set [2] has as its target B-Raf(h) (Homo sapiens, UniProt P15056). The experiment in a line: Kinase Profiler. The format is biochemical.
Procedure: as §1
Data set [3] concerns the target Protein Tyrosine Kinase, LCK (Homo sapiens, UniProt P06239). Nature of the data set: Safety screen. The format is biochemical.
Procedure: (§2) The kinase profiler was performed by the company Eurofins (Discovery, Panlab and Cerep).
In data set [4] the test system is MDA-MB-468 Luc cells. Nature of the data set: Orthotopic breast cancer (TNBC xenograft) model. The format is in vivo, mouse. The following applies: 25 mg/kg/day i.p. The method, then:
The anti-metastatic potential of A41 was assessed in a TNBC xenograft model by orthotopic injection of MDA-MB-468 Luc cells into the mammary fat pad of […] Nordic Medical Research Institute (NMRI) nude mice randomized in 2 groups. The tumor grows gradually over time. At the 50th day post grafting, when a volume of ∼1,000 mm^3 was reached, the tumor was resected, which corresponded to tumor mass of approximately 0.6 g (Figure S8A). Mice were then treated with A41 (25 mg/kg/day, intraperitoneally; group 2) or vehicle for 4 weeks (group 1).
Figure 6 A41 decreases metastasis of TNBC cells in vivo (A) Representative images of luciferase bioluminescence intensities (BLI) in whole body, legs, and ovaries/uterus 4 weeks after resection of MD1-MB-468 Luc tumor in NMRI nude mice not treated (control) and treated with A41 (25 mg/kg/day, intraperitoneally for 4 weeks). (B) Metastasis frequency quantification based on ex vivo BLI measurements in indicated organs from control (black bars) and A41-treated mice 4 weeks after tumor resection (white bars) (N = 10–15 mice; ∗p < 0.05 vs. controls). (C) BLI quantification in legs and ovaries/uterus from control (black squares) and A41-treated (white squares) NMRI nude mice 4 weeks after tumor resection (N = 10–15 mice; ∗p < 0.05 vs. controls). (D) Cumulative proportion of immunocompetent control (red) and A41-treated mice (blue) displaying regrowth of the primary tumor after its resection. (E) Metastasis frequency quantified from ex vivo BLI measurements in leg bones, lungs, kidneys, and ovaries/uterus from immunocompetent control (black bar) and A41-treated (white bar) mice (N = 10 mice; ∗p < 0.05 vs. control). (F) Survival curve of immunocompetent control (red) and A41-treated mice (blue) after primary tumor resection (day 0).
Orthotopic cell xenograft was performed by injection of 4 million MDA-MB-468Luc cells in the fourth fat pad from 5-week-old NMRI nude mice. Primary tumour was allowed to develop during 5 weeks and tumour growth was assessed by tumour volume measurement using a caliper. Primary tumor was then removed by surgical exeresis and weighed. Treatments began 1 day before exeresis. A41 (25 mg/kg) was administered intraperitoneally on a daily basis during 4 weeks. Mice were weighed 5 times a week and in vivo bioluminescence intensities were measured once a week (Imager PerkinElmer IVIS spectrum bioluminescence imager). At the end of the protocol, mice were sacrificed and ex vivo bioluminescence intensities of indicated organs (legs, ovaries, uterus, lungs and liver) were measured within 15 min of D-luciferin intraperitoneal injection (150 mg kg−1). Photons emitted by cancer cells were counted by bioluminescent imaging and expressed in counts per minute (c.p.m.).

In data set [5] the target is EphB3(h) (Homo sapiens, UniProt P54753). Nature of the data set: Kinase Profiler. The format is biochemical.
Procedure: as §1
The test system of data set [6] is breast CAF spheroids. The experiment in a line: 3D invasion assay. The format is cell-based, human. The following applies: 10^-5 M. The method, then:
Figure 5 A41 decreases growth and invasiveness of TNBC cells in vitro (A) Representative images of RAC-GTP levels (red) in MDA-MB-468 Luc cells in the absence (CTL) and presence of EHT1864, NSC23766, or A41 (1 h at 10 μM) (left). Luciferase (Luc, green) was used to detect the cells. RAC-GTP mean fluorescence intensity was quantified inside the cell area (right) (n = 31–37 cells from 3 independent experiments; ∗p < 0.05, ∗∗∗p < 0.001) (scale bars: 10 μm). […] (C) Quantification of colony number of indicated cancer cell lines in the presence of A41 (10 μM) expressed as the percentage of control in the absence of A41. Results shown are representative of N > 3 independent experiments. (D) Immunoblot analysis and corresponding quantification of AKT and P44/42 expression and phosphorylation (pAKT, p44/42) in MDA-MB-468 Luc cells in the absence (−) and presence of NSC23766 or A41 (1 h at 10^−5 M). […] (E) 3D invasion assay of MDA-MB-468 Luc and cancer-associated fibroblasts (CAFs) and corresponding quantification (scale bars: 200 μm). […]
3D-spheroids were obtained, according the protocol previously described,[62] by re-suspending cells at a concentration of 1.25 × 10^4 cells/ml in 20% Methyl-cellulose/80% DMEM 10% FBS. […] Invasion was monitored by fully automated Dmi6000b Wide Field Fluorescence Microscope (Leica Microsystems, Wetzlar, Germany) during 48h.

Data set [7] concerns the target PKCε(h) (Homo sapiens, UniProt Q02156). The experiment in a line: Kinase Profiler. The format is biochemical.
Procedure: as §2
Data set [8] deals with CaMKIIα(h) (Homo sapiens, UniProt Q9UQM7). The experiment in a line: Kinase Profiler. The format is biochemical.
Procedure: as §2
For data set [9], the target named is mTOR(h) (Homo sapiens, UniProt P42345). Nature of the data set: Kinase Profiler. The format is biochemical.
Procedure: as §2

Sequence of CaMKIIα(h) (Q9UQM7 whole entry): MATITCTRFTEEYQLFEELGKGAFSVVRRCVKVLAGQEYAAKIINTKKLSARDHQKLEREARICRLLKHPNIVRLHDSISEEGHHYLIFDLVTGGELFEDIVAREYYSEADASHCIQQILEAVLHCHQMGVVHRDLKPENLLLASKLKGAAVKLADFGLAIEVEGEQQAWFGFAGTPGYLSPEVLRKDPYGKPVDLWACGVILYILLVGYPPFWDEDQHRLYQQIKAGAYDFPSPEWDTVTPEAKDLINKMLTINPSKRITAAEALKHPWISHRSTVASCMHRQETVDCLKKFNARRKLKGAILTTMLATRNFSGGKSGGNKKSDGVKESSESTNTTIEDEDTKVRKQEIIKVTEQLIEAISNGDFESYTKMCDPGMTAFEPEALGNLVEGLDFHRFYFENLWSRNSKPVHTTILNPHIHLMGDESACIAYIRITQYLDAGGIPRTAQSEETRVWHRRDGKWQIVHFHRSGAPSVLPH
Sequence of PKCε(h) (Q02156 whole entry): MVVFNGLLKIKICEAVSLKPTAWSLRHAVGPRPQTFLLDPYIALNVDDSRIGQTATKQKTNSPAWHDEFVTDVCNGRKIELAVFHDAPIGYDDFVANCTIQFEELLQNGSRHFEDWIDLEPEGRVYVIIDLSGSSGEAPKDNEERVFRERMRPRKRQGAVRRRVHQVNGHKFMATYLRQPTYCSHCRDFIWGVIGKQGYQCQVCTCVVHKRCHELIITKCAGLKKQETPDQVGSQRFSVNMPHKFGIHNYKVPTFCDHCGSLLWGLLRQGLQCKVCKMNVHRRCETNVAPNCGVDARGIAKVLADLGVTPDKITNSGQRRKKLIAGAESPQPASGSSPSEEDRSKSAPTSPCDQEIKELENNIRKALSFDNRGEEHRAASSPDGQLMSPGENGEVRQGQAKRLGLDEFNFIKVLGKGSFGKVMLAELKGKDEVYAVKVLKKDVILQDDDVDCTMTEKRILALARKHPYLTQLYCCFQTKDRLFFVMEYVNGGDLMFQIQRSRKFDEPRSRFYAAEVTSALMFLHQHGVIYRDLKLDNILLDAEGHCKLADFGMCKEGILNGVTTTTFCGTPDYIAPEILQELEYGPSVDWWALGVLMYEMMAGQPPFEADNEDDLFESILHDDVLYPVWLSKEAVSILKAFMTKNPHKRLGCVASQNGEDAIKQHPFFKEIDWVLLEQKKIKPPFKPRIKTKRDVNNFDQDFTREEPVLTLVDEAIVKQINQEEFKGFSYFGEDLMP
Sequence of EphB3(h) (P54753 34-998): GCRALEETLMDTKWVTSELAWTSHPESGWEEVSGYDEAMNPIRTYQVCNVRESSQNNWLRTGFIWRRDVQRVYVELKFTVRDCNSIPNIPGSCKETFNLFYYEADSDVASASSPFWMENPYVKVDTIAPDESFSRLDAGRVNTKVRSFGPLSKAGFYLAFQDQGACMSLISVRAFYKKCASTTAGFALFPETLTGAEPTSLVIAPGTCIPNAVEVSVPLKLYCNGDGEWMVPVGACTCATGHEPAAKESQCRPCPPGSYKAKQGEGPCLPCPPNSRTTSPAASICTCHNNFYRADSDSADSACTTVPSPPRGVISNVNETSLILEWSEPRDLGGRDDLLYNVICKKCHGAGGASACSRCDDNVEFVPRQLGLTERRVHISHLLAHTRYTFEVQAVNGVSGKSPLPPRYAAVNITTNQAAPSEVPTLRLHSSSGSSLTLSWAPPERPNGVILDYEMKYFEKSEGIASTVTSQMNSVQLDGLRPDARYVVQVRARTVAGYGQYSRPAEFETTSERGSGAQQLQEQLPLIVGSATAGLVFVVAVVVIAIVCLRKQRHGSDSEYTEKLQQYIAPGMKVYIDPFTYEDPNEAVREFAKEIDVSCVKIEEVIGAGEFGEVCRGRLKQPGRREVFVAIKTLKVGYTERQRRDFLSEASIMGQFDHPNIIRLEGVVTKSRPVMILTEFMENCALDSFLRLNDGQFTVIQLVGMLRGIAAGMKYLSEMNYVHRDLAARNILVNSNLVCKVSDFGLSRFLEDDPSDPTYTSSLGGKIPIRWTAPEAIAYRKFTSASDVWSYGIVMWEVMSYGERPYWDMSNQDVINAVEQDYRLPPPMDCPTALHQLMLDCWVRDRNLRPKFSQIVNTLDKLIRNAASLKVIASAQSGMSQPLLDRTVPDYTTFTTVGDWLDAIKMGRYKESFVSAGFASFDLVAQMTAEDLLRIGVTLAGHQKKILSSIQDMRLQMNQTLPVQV
Sequence of Protein Tyrosine Kinase, LCK (P06239 whole entry): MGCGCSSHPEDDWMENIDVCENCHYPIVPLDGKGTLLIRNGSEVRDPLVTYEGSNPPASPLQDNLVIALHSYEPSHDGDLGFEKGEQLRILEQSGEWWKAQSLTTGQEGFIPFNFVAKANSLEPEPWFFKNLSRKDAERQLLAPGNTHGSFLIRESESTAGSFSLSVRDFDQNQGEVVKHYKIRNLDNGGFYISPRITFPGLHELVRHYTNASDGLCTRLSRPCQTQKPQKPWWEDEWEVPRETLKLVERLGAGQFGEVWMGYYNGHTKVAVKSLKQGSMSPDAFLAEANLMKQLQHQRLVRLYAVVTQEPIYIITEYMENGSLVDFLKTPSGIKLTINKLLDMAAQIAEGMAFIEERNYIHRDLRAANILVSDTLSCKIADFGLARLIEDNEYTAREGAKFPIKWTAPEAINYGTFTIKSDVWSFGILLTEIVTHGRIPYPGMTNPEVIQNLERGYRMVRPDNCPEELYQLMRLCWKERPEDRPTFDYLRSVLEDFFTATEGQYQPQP
Sequence of ROCK-II(r) (Q62868 2-543 limits assumed): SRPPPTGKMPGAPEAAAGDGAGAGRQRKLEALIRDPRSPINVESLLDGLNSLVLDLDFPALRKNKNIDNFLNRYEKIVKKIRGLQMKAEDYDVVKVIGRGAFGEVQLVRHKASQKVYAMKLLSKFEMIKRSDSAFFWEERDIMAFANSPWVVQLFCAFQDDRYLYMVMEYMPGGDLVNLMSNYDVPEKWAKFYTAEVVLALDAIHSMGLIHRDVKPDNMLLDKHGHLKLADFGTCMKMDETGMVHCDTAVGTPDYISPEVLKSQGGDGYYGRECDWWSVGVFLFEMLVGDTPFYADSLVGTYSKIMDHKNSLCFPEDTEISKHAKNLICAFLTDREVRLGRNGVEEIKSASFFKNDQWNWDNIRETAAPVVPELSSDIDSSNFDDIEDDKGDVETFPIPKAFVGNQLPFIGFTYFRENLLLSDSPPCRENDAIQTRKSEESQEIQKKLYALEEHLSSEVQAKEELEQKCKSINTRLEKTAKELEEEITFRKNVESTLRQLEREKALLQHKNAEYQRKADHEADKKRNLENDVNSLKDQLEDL
Sequence of B-Raf(h) (P15056 whole entry): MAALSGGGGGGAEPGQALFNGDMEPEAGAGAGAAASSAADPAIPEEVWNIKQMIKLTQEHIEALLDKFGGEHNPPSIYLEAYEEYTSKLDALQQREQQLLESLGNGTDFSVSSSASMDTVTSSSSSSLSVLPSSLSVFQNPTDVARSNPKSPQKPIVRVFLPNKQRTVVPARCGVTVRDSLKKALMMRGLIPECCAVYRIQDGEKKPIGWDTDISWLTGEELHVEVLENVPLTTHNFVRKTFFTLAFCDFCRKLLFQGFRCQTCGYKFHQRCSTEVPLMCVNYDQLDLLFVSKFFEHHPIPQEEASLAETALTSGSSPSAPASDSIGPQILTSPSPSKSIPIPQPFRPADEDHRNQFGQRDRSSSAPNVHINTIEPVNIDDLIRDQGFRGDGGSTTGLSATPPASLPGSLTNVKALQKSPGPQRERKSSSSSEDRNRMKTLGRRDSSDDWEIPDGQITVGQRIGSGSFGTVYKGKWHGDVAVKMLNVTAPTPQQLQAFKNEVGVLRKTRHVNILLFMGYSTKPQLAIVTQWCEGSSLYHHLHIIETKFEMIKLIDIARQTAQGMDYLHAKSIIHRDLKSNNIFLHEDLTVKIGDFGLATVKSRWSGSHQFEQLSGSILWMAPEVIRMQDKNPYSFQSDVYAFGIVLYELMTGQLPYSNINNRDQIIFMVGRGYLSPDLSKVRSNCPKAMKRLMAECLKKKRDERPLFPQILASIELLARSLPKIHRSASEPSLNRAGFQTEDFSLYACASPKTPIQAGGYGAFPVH

As to `COc1ccc(OC)c(NS(=O)(=O)c2ccc(NC(=O)CCSc3ccc(C)cc3)cc2)c1` [Compound A41], the “Activity(%)” value in data set [1] was determined as 110%; in [2] it was 90%; in [5], 113%; in data set [7] it was 102%; in [8] it was 99%; in data set [9] it was 101%. Further, the “% inh.” value in data set [3] was determined as 14%. In addition, the “primary tumor regrowth (in vivo BLI)” value in [4] (4 weeks after resection) is on record as “decrease in primary tumor regrowth”. For the same compound, the “ex vivo luminescence intensity of femur, ovaries, and uterus” value in data set [4] (4 weeks post resection) is listed as “significantly lower in A41-treated than in control mice”. In addition, the “metastasis frequency (leg bones, lungs, kidneys, ovaries, uterus; ex vivo BLI)” value in [4] (4 weeks post resection) is “significantly higher frequency in control than in A41-treated mice”. Further, the “weight of the mice” value in data set [4] (4 weeks, vs vehicle) is “no difference between the two groups”. Further, the “invasion of CAF spheroids” value in data set [6] is “anti-invasion property”.
